Test results published in US20080275014A1, “Clobetasol Propionate Shampoos for the Treatment of Seborrheic Dermatitis of the Scalp” (Galderma S.A., priority 2004, published 2008).

Assay: Clobetasol plasma levels
Type: in vivo, human
Conditions: 45 subject plasma samples; after topical scalp treatment
Experimental: This study was conducted as a single center, randomized, investigator-masked and competitor comparison of 4 parallel groups involving Psoriasis and Scalp seborrheic dermatitis subjects. The aim of the trial was to evaluate the opthalmological irritation potential and the potential to suppress the HPA axis of Clobetasol Propionate Shampoo, 0.05%. During 4 weeks, psoriasis subjects had to treat their scalp once a day with Clobetasol Shampoo, 0.05% or with Dermoval/Temovate gel. Scalp seborrheic dermatitis subjects had to treat their scalp twice a week with Clobetasol Shampoo, 0.05% or on a day with Dermoval/Temovate gel.
Each subjects was submitted at each visit (each week during 4 weeks) to the following tests, ocular examination, HPA-axis function, local and general safety. First, opthalmological examination, measurement of intraocular pressure, detection of ocular subjective symptoms such as burning sensation, measurement of far and near visual acuity. Second, they were sampled for serum cortisol levels and were submitted to the Cosyntropin (Synacthene) stimulation assay. Cutaneous safety (skin atrophy using B-Scan ultra-sound and telangiectasis) and adverse events were also recorded. Systemic safety was also assessed by routine laboratory test and detection of Clobetasol Plasma levels, cutaneous safety, and DSS at the end of the study.

- amounts found in subject plasma samples: No detectable amounts
Compound: CCC(=O)O[C@]1(C(=O)CCl)[C@@H](C)C[C@H]2[C@@H]3CCC4=CC(=O)C=C[C@]4(C)[C@@]3(F)[C@@H](O)C[C@@]21C [Clobatasol 17-propionate, clobetasol 17-propionate]
